Measurements reported in a melting point compilation (Tetko et al.).

SMILES	melting point [°C]
N#CC(c1ccc(Cl)cc1)c1c(Cl)cc(-n2ncc(=O)[nH]c2=O)cc1Cl (stereo not given)	295
O=C1NN=C(C(F)(F)F)C1=NNc1ccc(Br)cc1	212
Cn1c(=O)c(C(N)=S)cn(-c2ccccc2)c1=O	229 to 232
C1=C(c2ccccc2)Cc2ccccc21	166 to 167
CC(O)(P(=O)(O)O)P(=O)(O)O	199
O=C1CCC2C1C1CCC(=O)C21 (stereo not given)	266
COc1ccc(C(=O)OCCOc2ccc(C=CC(=O)c3ccccc3)cc2)cc1	113
c1ccc(CNCc2ccccc2)cc1	-26
NS(=O)(=O)c1cc(Cl)sc1Cl	131 to 133
O=C(O)c1cccc(Oc2ccccn2)c1	108 to 112
CCCOCC(=Nc1ccc(Cl)cc1C(F)(F)F)n1ccnc1	63.5
CCN1CC2(COC)CCC(O)C34C5CC6C(OC)CC(O)(C5C6OC)C(O)(C(OC)C23)C14 (stereo not given)	214
COc1ccc(OC)c2c1CC2=O	105
NC(=O)CC[C@H](NC(=O)C(F)(F)F)C(=O)O	146 to 150
COc1ccc(C=C(CC(=O)O)C(=O)O)cc1	186 to 188
NNC(=O)c1ccc(F)cc1F	141 to 142
CCCNC(N)=O	107 to 109
CC(=O)OC1CC[C@H]2[C@@H]3[C@H](C)CC4CC(=O)CC[C@]4(C)[C@H]3CC[C@]12C (stereo not given in full)	142
O=C(Nc1ccc(Cl)cc1)C(Cl)=C(Cl)Cl	146
O=C(O)CS(=O)(=O)O	85
NCC(O)C(=O)O (stereo not given)	235
Cc1c(N)cccc1O	127 to 133
CCCCS(=O)(=O)NC(Cc1ccc(OCCCCC2CCNCC2)cc1)C(=O)O (stereo not given)	223
O=C(CI)c1ccccc1	34.4
CC12CCC(CCC1=O)C2(C)C (stereo not given)	193
Nc1ccc(Cl)c(Cl)c1Cl	73
NS(=O)(=O)c1cc2c(s1)C(O)CCS2 (stereo not given)	158

SMILES	melting point [°C]
Cc1noc(-c2ccc(CO)cc2)n1	102 to 104
Cc1nc2sccn2c1C(=O)NN	150
CN(C)CCc1c[nH]c2ccc(O)cc12	146
CC(=O)c1ccc(N2CCOCC2)cc1	94 to 98
COc1cc(C(=O)c2ccc(Cl)cc2Cl)c([N+](=O)[O-])cc1OC	114
O=C1C(=Cc2ccccc2)Cc2ccccc21	110
CCc1n[nH]c2c1C(c1ccccc1)C(C#N)=C(N)O2 (stereo not given)	192 to 196
CC(C)(C)c1cc(C(C)(C)C)c(N=O)c(C(C)(C)C)c1	170 to 173
Cc1nn(C)c2ncc3c(=O)[nH]n(C)c3c12	300
Cc1oc(-c2ccccc2)nc1CN	42 to 46
O=[N+]([O-])C(CO)(CO)CO	214
Cc1cccc(C(=O)N(NC(=O)c2ccccc2)C(C)(C)C)c1	211
Nc1ccccc1C(=O)OCC=Cc1ccccc1	61
Cc1ccc(Cl)nn1	57
COc1cc(OC)nc(NC(=O)NS(=O)(=O)c2cc(NC=O)ccc2C(=O)N(C)C)n1	194
N#Cc1cccc(F)c1	-16
Cn1nc2ccccc2c1C(=O)Cl	89 to 90
S=C(c1ccc2c(c1)OCO2)N1CCOCC1	154
C=CC1CN2CCC1CC2C(O)c1ccnc2ccc(O)cc12 (stereo not given)	202
CC1(C2CCC3C4CCC5CC(O)CCC5(C)C4CCC32C)OCCO1 (stereo not given)	174
CC(=O)Oc1ccc(C2(c3ccc(OC(C)=O)cc3)C(=O)Nc3ccccc32)cc1	242
CC(=O)Nc1c(Br)cc(Br)cc1C(=O)c1ccccc1	156
COc1cc(CC#N)ccc1O	56.5
CC(C)C1COC2(C)C=CC(=O)N12 (stereo not given)	46 to 50
COC(=O)CC(O)(CC(=O)OC)C(=O)OC	79.3
CC(C)N(C1=NC(=Cc2ccccc2)C(=O)N1c1ccccc1)C(C)C	167
Cc1ccc(OP2(=S)Oc3ccc(Cl)cc3Sc3cc(Cl)ccc3O2)c(C)c1	149

SMILES	melting point [°C]
CN1CCOc2cc(Br)cnc21	77 to 79
Nc1c(Br)cc(C2CCCCC2)cc1Br	37 to 38
NC(=NO)c1ccccc1OC(F)(F)F	99 to 101
O=Cc1cc(Br)cc2c1OCC2	94 to 95
Nc1cc(F)c(Br)cc1F	75
CC(=O)Nc1ccc(F)cc1F	122
COc1ccc2c(=O)n3c(cc2c1)CCCC3	80
O=C(O)c1ccc(OC(=O)c2ccccc2)cc1	89
NNc1nc(-c2ccccc2)c2c(N)n[nH]c2n1	241 to 244
NC(=O)Cc1nc(-c2ccc([N+](=O)[O-])cc2)cs1	202 to 203
CCCCCCCCCCCCCC1CCCCC1	18.5
CCCSP(=O)(OCC)Oc1ccc(Br)cc1Cl (stereo not given)	< 25
CCCCCCCCCCCCCCCCCBr	32
CC(C)(C)C1CCCCC1O (stereo not given)	45
O=C1CC(=O)NC(=O)N1	248
S=c1cn[nH]c(=S)[nH]1	209 to 210
O=C(O)CS(=O)(=O)C=Cc1ccccc1	151 to 154
N#Cc1ccc(N)cc1Cl	118
COC(=O)c1cc(C=O)oc1C	83
Cc1cc(Cl)cc2c(O)c(C(=O)O)cnc12	303 to 308
Cc1cc(Cl)cc(Cl)c1Cl	45.5
CC(O[S+]([O-])C(C)(C)C)C(O)(c1ccccc1)c1ccccc1 (stereo not given)	135 to 137
COc1cc(C)c2c(c1)CC2=O	83
COc1cc(C=O)ccc1OC1OC(CO)C(O)C(O)C1O (stereo not given)	189
NNc1ncnc2sc3c(c12)CCCC3	178 to 179

Further lines, results first:

melting point [°C]	SMILES
121	Cc1ccc(S(C)(=O)=O)cc1[N+](=O)[O-]
230 to 234	Cc1cc([N+](=O)[O-])c[nH]c1=O
167	CC12CCC(=O)C=C1CCC1C2C(O)CC2(C=O)C(C(=O)CO)CCC12 (stereo not given)
35.5	Nc1c(F)c(F)c(F)c(F)c1F
296	CC1(C(=O)O)CCC2(C)CCC3(C)C(=CC(=O)C4C5(C)CCC(O)C(C)(C)C5CCC43C)C2C1 (stereo not given)
44	Cc1cc(C)cc(CC#N)c1
260	Cn1c(=O)c(C2=NNC(=O)C2=NNc2ccc(Br)cc2)c(O)c2ccccc21
190 to 191	Cc1noc(-c2ccccc2)c1C(=O)O
214	O=C1CSc2cc(Cl)ccc2N1
162	CCOC(=O)N/C=C1/C(=O)C2(C)CCC1C2(C)C (stereo not given)
125	CC12CCC(=O)N1C(c1ccccc1)CO2 (stereo not given)
-65	CN1CCOCC1
87	N#Cc1cccc(Cl)n1
35 to 37	Clc1cc(Br)ccc1I
154 to 155	CCOC(=O)Cc1cc(C(=NNc2ccccc2)C(=O)OCC)c([N+](=O)[O-])cc1[N+](=O)[O-]
72	OCc1cccc2nonc12
104	O=C(Cl)c1csc(Cc2c(Cl)cccc2Cl)n1
377	CC1C(=O)C23C(O)CC4C(C)(C)CC(O)CC4(C)C2CCC1C3O (stereo not given)
31	Nc1cc(F)ccc1C(F)(F)F
180	O=C1C=C2CC3(O)COc4c(ccc(O)c4O)C3=C2C=C1O (stereo not given)
42 to 46	CC1(C)OCC2OC3OC(C)(C)OC3C2O1 (stereo not given)
129 to 134	O=S(=O)(SS(=O)(=O)c1ccccc1)c1ccccc1
30.5	CCOC(=O)c1ccc(CBr)cc1
120 to 121	CC(C)(C)c1cc(C(C)(C)C)c(O)cc1O
61 to 66	CCCCCCCCCCOc1ccc(C=O)cc1OCCCCCCCCCC
54 to 55	NCc1ccc(CN2CCOCC2)cc1

melting point [°C]	SMILES
143 to 145	Cc1n[nH]c2c(=O)n(C(C)C)c(C)nc12
187	O=C(C(C(=O)N1CCOCC1)c1ccccc1)N1CCOCC1
160 to 161	C/C(CCc1oc2ccc([N+](=O)[O-])cc2c1-c1ccc(C)o1)=N/O
46	Nc1ccccc1N1CCCCC1
-70.8	CCCCCOC(C)=O
92	O=C(/C=C/c1ccc(OCC2CO2)cc1)c1ccccc1 (stereo not given)
165	CNC(=S)Nc1cc(OC)c(OC)cc1C(c1ccc(C)o1)c1ccc(C)o1
224	CC(=O)N(CC(C)C(=O)O)c1c(I)cc(I)c(N)c1I (stereo not given)
-91	CC(CO)CO
172 to 174	CC(=O)c1cc2cc(Cl)cc(Cl)c2oc1=O
120 to 121	COc1cscc1C(N)=O
173 to 177	BrC1CCC(Br)C(Br)CCC(Br)C(Br)CCC1Br (stereo not given)
45	Clc1cccc2ncccc12
168	O=C(CO)[C@@H](O[C@H]1O[C@H](CO)[C@@H](O)[C@H](O)[C@H]1O)[C@H](O)[C@H](O)CO
136	CC(C)(C)C(=O)Nc1ccc2nn(C3CCCC3)nc2c1
36 to 38	COC(=O)c1ccc(C)c(C)c1
150	CC(NC(=O)CCCCNC(=O)C12CC3CC(CC(C3)C1)C2)[P+]([O-])(Oc1ccccc1)Oc1ccccc1 (stereo not given)
97	CC(=O)c1cc(Cl)cc(Cl)c1O
195 to 197	CCOc1ccc(C=CC(=O)O)cc1
99	COc1cc(F)c(F)cc1C#N
179	COc1cc(OC)nc(NC(=O)NS(=O)(=O)N(C)S(C)(=O)=O)n1
66	CCCCCCCCCCCCCCCC(=O)Oc1ccc([N+](=O)[O-])cc1
211 to 213	Cn1cc(Br)c(C(=O)O)n1
94	O=C1CCc2cc(Cl)ccc21
103	O=C1C=CCN1[C@@H](CO)c1ccccc1
